Measurements from patent US20180369203A1, “METHODS OF TREATING CANCER BY ADMINISTERING A MEK INHIBITOR IN COMBINATION WITH A PROTEASOME INHIBITOR” (The Jackson Laboratory, priority 2015, published 2018).

How the values were obtained:
polyQ79 = polyQ79 aggregate size in HEK293T cells (Coulter counter); type: cell-based; settings: 20 nM AZD6244, 100 nM Bortezomib, or both
Procedure: (§1) FIGS. 5A-Y show MEK and proteasome inhibition provoke protein aggregation and amyloidogenesis. (A-B) WM115 cells treated with 20 nM AZD6244, 100 nM Bortezomib, or both for 24 hr were stained with Lys48-specific ubiquitin antibodies. Arrowheads mark ubiquitin-positive aggregates. Scale bar: 10 μm. Amounts of aggregates per cell were quantitated using ImageJ (median, n≥100, ANOVA). (C-F) Following transfection with polyQ79 plasmids alone or with both polyQ79 and HSF1^S326D plasmids for one day, HEK293T cells were treated with inhibitors as described in (A-B). Cells were either analyzed for aggregate size or stained with 10 μM ThT. (G) Treated tumor cell lines were stained with 10 μM ThT. Geometric means were used to calculate fold changes in ThT fluorescence intensity and the log 2(FC) values were presented as a heat map. (H) HEK293T cells were transfected with LacZ or polyQ79 plasmid. Following treatments, AOs were quantitated by ELISA using A11 antibodies (mean±SD, n=3, ANOVA). (I) Intrinsic AOs were detected in human tumor cell lines (mean±SD, n=3, ANOVA). […] Amyloids were quantitated by ELISA (mean±SD, n=3, Student's t-test). […] AF formation was monitored by ThT binding (mean±SD, n=3, ANOVA). […] Amyloids were quantitated (mean±SD, n=3, Student's t-test). […] Viable cells were quantitated by CellTiter® blue (mean±SD, n=6, Student's t-test). […] Viable cells were quantitated (mean±SD, n=6, ANOVA). […]

amyloid oligomers (AOs) [1] = assay: Amyloid oligomer ELISA (A11) in murine cells (primary MEFs, NIH3T3); type: cell-based, mouse; settings: different concentrations of Bortezomib, 24 hrs
Procedure: as §1, with “(H) HEK293T cells were transfected with LacZ or polyQ79 plasmid.” left out
(§2) This figure is related to FIG. 5. […] (C) Quantitation of protein aggregate size. […]

polyQ79-expressing cells = assay: ThT and CR staining of polyQ79-expressing cells (flow cytometry); type: cell-based; settings: HEK293T; 20 nM AZD6244, 100 nM Bortezomib, or both
Procedure: as §1

amyloid oligomers (AOs) [2] = assay: Amyloid oligomer ELISA (A11) in human tumor, immortalized and primary cells; type: cell-based; settings: 20 nM AZD6244, 100 nM Bortezomib, or both, 24 hr
Procedure: FIGS. 5A-Y show MEK and proteasome inhibition provoke protein aggregation and amyloidogenesis. (A-B) WM115 cells treated with 20 nM AZD6244, 100 nM Bortezomib, or both for 24 hr were stained with Lys48-specific ubiquitin antibodies. Arrowheads mark ubiquitin-positive aggregates. Scale bar: 10 μm. Amounts of aggregates per cell were quantitated using ImageJ (median, n≥100, ANOVA). (C-F) Following transfection with polyQ79 plasmids alone or with both polyQ79 and HSF1^S326D plasmids for one day, HEK293T cells were treated with inhibitors as described in (A-B). Cells were either analyzed for aggregate size or stained with 10 μM ThT. (G) Treated tumor cell lines were stained with 10 μM ThT. Geometric means were used to calculate fold changes in ThT fluorescence intensity and the log 2(FC) values were presented as a heat map. (H) HEK293T cells were transfected with LacZ or polyQ79 plasmid. Following treatments, AOs were quantitated by ELISA using A11 antibodies (mean±SD, n=3, ANOVA). (I) Intrinsic AOs were detected in human tumor cell lines (mean±SD, n=3, ANOVA). […] Amyloids were quantitated by ELISA (mean±SD, n=3, Student's t-test). […] AF formation was monitored by ThT binding (mean±SD, n=3, ANOVA). […] Amyloids were quantitated (mean±SD, n=3, Student's t-test). […] Viable cells were quantitated by CellTiter® blue (mean±SD, n=6, Student's t-test). […] Viable cells were quantitated (mean±SD, n=6, ANOVA). Relative changes in viable cells after treatment were calculated by normalizing the values of AZD6244-treated cells against the values of DMSO-treated cells at each time point. (U)-(W) Following treatments with 20 nM AZD6244, 100 nM Bortezomib, or both for 24 hr, AOs were quantitated in primary MEFs and human cells (mean±SD, n=3, ANOVA). (X and Y) Cells were treated with 50 μM Q-VD-OPh overnight and AOs were quantitated (mean±SD, n=3, Student's t-test). […]
To quantitate soluble amyloid prefibrillar oligomers, 20 μg soluble cellular proteins diluted in PBS were incubated for each well in a 96-well ELISA plate at 4° C. overnight followed by blocking (5% non-fat milk in PBS-T) at RT for 1 hr. […]

Aβ1-42 peptides = assay: In vitro amyloid seeding of Aβ1-42 with lysates of treated A2058 cells (ThT binding, TEM); type: cell-based, human
Procedure: as §1, with “(H) HEK293T cells were transfected with LacZ or polyQ79 plasmid.” left out
as §2

In the case of `CC(C)C[C@H](NC(=O)[C@H](Cc1ccccc1)NC(=O)c1cnccn1)B(O)O` [Bortezomib, bortezomib], the polyQ79 aggregate size (polyQ79) is reported as “enhanced”, the “endogenous amyloid oligomers in NIH3T3 cells” value (amyloid oligomers (AOs) [1]) is reported as “capable of inducing amyloidogenesis” and the “ThT and CR staining of polyQ79-expressing cells” value (polyQ79-expressing cells) is reported as “further intensified”. The “AO levels in MCF10A cells” value (amyloid oligomers (AOs) [2]; immortalized human mammary epithelial cells) was “slight induction”, the “AO levels in PHMC” value (amyloid oligomers (AOs) [2]; primary human mammary epithelial cells) was “no induction” and the “AO levels in MCF7 cells” value (amyloid oligomers (AOs) [2]; tumorigenic mammary epithelial cells) was “marked AO induction”. The “amyloid seeding efficacy of cell lysates” value (Aβ1-42 peptides; 20 μM Aβ1-42, ThT binding) was “augmented” and the “fibril morphology after seeding (transmission electron microscopy)” value (Aβ1-42 peptides; 37° C., 2 days) was “mature fibrils”.
